Reference: patent US20240109868A1, “EP300/CBP MODULATOR, PREPARATION METHOD THEREFOR AND USE THEREOF” (Miracure Biotechnology Limited, priority 2022, published 2024)

Tests used:
EP300 = target: T1, EP300 (Homo sapiens, UniProt Q09472); test: Ep300 AlphaLISA assay kit; assay type: biochemical; details: read-out: EP300 ALPHA IC50
T1 construct: purchased
Procedure: The biochemical activity of the EP300 modulators was determined using the Ep300 AlphaLISA® assay kit. The assay is based on the […] of residues in the peptide substrate by enzymatic transfer of acetyl groups from acetyl-CoA to particular lysine. The compounds were incubated with EP300 and then with an antibody combination of an antibody that specifically binds to an acetylated peptide and acceptor beads that bind to an acetylated peptide, followed by streptavidin-labeled donor beads. The alpha counts were read, the data were analyzed using Prism 7.0, and the IC50 values were calculated. The values are shown as mean f SEM (N=2).

22Rv1 Cell = test: 22RV1 cell growth inhibition, CellTiter-Glo, 72 h; assay type: cell-based; details: Homo sapiens, 22Rv1, 72 h, 22RV1 cells, 72 h culture
Procedure, shortened: (§1)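 Cells seeded at 5×10^3/well overnight in RPMI-1640/10% FBS, then exposed to compound (0.5% DMSO final) for 72 h at 37 °C.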

CBP bromodomain = target: T2, CBP bromodomain (Homo sapiens, UniProt Q92793); test: CBP AlphaLISA assay kit (CBP bromodomain binding to acetylated histone substrate); details: read-out: CBP ALPHA IC50
T2 construct: purchased
Procedure: The biochemical activity of the CBP inhibitors was determined using the CBP AlphaLISA® assay kit. The assay is based on the binding of the CBP bromodomain to the acetylated histone substrate. The compounds were incubated with CBP and the biotinylated substrate for 30 min. Then acceptor beads were added, followed by 15 min of incubation, and donor beads were added, followed by 15 min of incubation. Then the alpha counts were read, the data were analyzed using Prism 7.0, and the IC50 values were calculated. The values are shown as mean f SEM (N=2).

vCap Cell = test: vCap cell growth inhibition, CellTiter-Glo, 72 h; assay type: cell-based; details: Homo sapiens, VCaP, 72 h, vCap cells, 72 h culture
Procedure, shortened: as §1

T2 sequence (Q92793 1085-1192 limits assumed): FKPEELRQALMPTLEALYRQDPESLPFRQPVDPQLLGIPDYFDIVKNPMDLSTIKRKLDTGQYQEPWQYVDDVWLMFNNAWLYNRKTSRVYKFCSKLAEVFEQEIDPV
T1 sequence (Q09472 whole entry): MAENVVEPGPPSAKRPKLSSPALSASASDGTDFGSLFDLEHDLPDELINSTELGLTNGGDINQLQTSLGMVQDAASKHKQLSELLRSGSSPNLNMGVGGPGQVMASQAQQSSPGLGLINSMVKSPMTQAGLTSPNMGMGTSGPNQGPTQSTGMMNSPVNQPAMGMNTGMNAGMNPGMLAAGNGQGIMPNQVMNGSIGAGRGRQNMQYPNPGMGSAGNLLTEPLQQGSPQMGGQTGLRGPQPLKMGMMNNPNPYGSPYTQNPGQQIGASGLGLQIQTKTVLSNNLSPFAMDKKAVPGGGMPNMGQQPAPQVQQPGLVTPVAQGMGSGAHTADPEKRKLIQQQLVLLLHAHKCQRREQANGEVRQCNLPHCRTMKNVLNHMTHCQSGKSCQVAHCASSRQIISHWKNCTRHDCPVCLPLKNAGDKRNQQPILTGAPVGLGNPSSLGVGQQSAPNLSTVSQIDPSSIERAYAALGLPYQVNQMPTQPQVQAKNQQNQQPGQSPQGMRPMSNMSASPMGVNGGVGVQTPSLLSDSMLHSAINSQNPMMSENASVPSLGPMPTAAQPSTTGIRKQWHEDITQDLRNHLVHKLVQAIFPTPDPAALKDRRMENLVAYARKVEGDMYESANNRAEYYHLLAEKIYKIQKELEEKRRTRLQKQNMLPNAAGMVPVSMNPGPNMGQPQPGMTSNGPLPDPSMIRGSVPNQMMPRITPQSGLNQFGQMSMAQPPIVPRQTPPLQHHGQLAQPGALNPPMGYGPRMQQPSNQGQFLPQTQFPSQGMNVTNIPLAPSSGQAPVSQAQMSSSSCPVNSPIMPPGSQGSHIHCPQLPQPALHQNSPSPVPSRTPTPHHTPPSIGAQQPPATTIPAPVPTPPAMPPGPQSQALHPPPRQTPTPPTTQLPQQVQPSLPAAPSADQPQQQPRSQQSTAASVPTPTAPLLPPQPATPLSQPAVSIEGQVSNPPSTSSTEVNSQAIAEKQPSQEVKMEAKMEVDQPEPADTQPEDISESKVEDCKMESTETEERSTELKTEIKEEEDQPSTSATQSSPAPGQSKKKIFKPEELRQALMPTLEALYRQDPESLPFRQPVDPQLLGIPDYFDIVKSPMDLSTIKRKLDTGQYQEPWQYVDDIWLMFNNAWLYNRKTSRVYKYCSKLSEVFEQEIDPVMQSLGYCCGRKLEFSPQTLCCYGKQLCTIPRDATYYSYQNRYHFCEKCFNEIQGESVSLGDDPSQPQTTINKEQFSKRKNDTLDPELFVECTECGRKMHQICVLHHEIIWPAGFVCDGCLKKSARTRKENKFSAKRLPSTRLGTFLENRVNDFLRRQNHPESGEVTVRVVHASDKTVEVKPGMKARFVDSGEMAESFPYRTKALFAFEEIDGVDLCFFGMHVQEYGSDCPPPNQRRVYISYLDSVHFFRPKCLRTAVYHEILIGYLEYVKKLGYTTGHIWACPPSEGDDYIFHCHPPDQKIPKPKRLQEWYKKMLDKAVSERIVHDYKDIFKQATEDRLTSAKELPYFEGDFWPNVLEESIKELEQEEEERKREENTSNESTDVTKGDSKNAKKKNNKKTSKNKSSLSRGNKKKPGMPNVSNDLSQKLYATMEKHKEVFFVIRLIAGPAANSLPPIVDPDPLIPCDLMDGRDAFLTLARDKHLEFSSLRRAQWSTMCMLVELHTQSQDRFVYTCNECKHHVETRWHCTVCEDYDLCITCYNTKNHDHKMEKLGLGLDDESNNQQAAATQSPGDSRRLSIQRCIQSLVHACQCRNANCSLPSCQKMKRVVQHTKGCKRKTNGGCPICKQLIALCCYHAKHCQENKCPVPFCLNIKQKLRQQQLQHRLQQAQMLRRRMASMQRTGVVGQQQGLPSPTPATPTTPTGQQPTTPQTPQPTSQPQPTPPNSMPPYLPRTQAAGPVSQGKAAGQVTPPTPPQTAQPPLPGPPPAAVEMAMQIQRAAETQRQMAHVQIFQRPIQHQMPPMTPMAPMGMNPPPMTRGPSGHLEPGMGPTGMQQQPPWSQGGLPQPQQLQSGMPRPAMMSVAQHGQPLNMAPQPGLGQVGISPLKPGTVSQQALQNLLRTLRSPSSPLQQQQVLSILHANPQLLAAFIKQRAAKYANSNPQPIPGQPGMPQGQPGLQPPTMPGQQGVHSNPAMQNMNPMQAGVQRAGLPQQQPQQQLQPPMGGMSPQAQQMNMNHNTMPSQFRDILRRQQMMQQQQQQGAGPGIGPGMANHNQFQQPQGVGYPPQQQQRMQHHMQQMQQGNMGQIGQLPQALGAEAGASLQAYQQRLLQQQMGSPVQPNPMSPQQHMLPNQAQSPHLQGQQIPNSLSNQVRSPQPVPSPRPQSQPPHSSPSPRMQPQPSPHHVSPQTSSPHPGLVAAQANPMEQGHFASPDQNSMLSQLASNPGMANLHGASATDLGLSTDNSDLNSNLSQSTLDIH

Row | Compound | IC50 (EP300) | IC50 (22Rv1 Cell) | IC50 (CBP bromodomain) | IC50 (vCap Cell)
1 | CC(=O)N1Cc2cc(C3CCOCC3)cc(N3CCCc4cc(-c5cnn(C)c5)c(C(F)F)cc43)c2C1 [Compound M001067] | < 10 nM | > 1000 nM | < 10 nM | < 1000 nM
2 | COCCN1CCC(c2cc3c(c(N4CCCc5cc(-c6cnn(C)c6)c(C(F)F)cc54)c2)CN(C(C)=O)C3)CC1=O (stereo not drawn) [Compound M001191] | – | < 1000 nM | < 10 nM | < 1000 nM
3 | COC(=O)N1CCc2cccc(N3CCCc4cc(-c5cnn(C)c5)c(C(F)F)cc43)c2C1 [Compound M001202] | < 10 nM | > 1000 nM | < 10 nM | > 1000 nM
4 | CNC(=O)N1Cc2nc(Cl)nc(N3CCCc4cc(-c5cnn(C)c5)c(C(F)F)cc43)c2C1 [Compound M001242] | > 10 nM | > 1000 nM | > 10 nM | > 1000 nM

More lines, now with the values ahead:

Row | IC50 (EP300) | IC50 (22Rv1 Cell) | IC50 (CBP bromodomain) | IC50 (vCap Cell) | Compound
5 | > 10 nM | > 1000 nM | > 10 nM | > 1000 nM | CC(=O)N1Cc2nc(C3CCOCC3)nc(N3CCCc4cc(-c5cnn(C)c5)c(C(F)F)cc43)c2C1 [Compound M001243]
6 | < 10 nM | > 1000 nM | < 10 nM | > 1000 nM | CNC(=O)N1CCc2nc(C3CCOCC3)nc(N3CCCc4cc(-c5cnn(C)c5)c(C(F)F)cc43)c2C1 [Compound M001245, 4-(7-(Difluoromethyl)-6-(1-methyl-1H-pyrazol-4-yl)-3,4-dihydroquinolin-1(2H)-yl)-N-methyl-2-(tetrahydro-2H-pyran-4-yl)-7,8-dihydropyrido[4,3-d]pyrimidine-6(5H)-carboxamide]
7 | < 10 nM | > 1000 nM | < 10 nM | > 1000 nM | CNC(=O)N1CCc2c(c(N3CCCc4cc(-c5cnn(C)c5)c(C(F)F)cc43)nn2C2CCOCC2)C1 [GNE-781]
